Patent publication US8012963B2, “3,4-dihydro-2H-benzo[1,4]oxazine and thiazine derivatives as CETP inhibitors” (Janssen Pharmaceutica N.V., priority 2006, dated 2011)
Values joined by “and” are separate entries in the source; they are usually repeats but may differ in a detail not shown here. Equal entries are not always repeated.

Target: T1, CETP (Homo sapiens, UniProt P11597)
T1 construct: from tissue; host or cells: human plasma from normal volunteers
T1 sequence (P11597 18-493): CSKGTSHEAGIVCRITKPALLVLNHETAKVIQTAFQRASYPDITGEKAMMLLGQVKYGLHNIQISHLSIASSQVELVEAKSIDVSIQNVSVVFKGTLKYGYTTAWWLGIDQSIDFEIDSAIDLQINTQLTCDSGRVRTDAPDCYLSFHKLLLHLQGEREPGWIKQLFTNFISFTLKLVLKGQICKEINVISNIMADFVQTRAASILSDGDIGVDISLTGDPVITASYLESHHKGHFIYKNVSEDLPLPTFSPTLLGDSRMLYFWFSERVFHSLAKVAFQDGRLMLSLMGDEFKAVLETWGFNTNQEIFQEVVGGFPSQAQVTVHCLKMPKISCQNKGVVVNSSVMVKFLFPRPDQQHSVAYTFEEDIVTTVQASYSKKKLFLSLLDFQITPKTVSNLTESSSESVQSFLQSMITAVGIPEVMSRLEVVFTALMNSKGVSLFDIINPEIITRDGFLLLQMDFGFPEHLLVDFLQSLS
Assay: CETP in vitro assay ([3H]CE-HDL transfer, Amersham kit TRKQ7005; modified protocol in human plasma)
Assay type: biochemical
Details: multiple values = multiple measurements; for % Inhibition @ 1 μM / inhibition at 1 µM: 1 μM compound
Method in brief: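 Normal-volunteer human plasma was incubated ≥4 hr at 37 °C with approx. 25 μg/ml [3H]CE-HDL and compound in DMSO, with a 4 °C blank for non-specific transfer. HDL was separated by Dextralip/MgCl2 precipitation and centrifugation, then supernatant radioactivity counted. IC50 came from % control versus concentration.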

Compound | % Inhibition @ 1 μM (1 µM) [%] | inhibition at 1 µM [%] | IC50 | % Inhibition @ 1 μM [%]
OC(CN1c2cccc(-c3cccc(OC(F)(F)F)c3)c2OCC1c1cccc(C(F)(F)F)c1)C(F)(F)F (stereo not shown) [Compound 70, 1,1,1-Trifluoro-3-[8-(3-trifluoromethoxy-phenyl)-3-(3-trifluoromethyl-phenyl)-2,3-dihydro-benzo[1,4]oxazin-4-yl]propan-2-ol] | 37 |  |  | 
O[C@H](CN1c2cccc(-c3cc(F)cc(F)c3)c2OC[C@@H]1c1cccc(OC(F)(F)C(F)F)c1)C(F)(F)F [Compound 73, 4H-1,4-Benzoxazine-4-ethanol, 8-(3,5-difluorophenyl)-2,3-dihydro-3-[3-(1,1,2,2-tetrafluoroethoxy)phenyl]-α-(trifluoromethyl)-, (3S,αR)—] |  | 76 | 460 nM | 
O[C@@H](CN1c2cccc(-c3cc(F)c(F)c(F)c3)c2OC[C@@H]1c1cccc(OC(F)(F)C(F)F)c1)C(F)(F)F [Compound 76, 4H-1,4-Benzoxazine-4-ethanol, 2,3-dihydro-3-[3-(1,1,2,2-tetrafluoroethoxy)phenyl]-8-[3,4,5-trifluoro-phenyl]-α-(trifluoromethyl)-, (3S,αS)—] | 101 | 106 | 41 nM | 
O[C@H](CN1c2cccc(-c3cc(F)c(F)c(F)c3)c2OC[C@@H]1c1cccc(OC(F)(F)C(F)F)c1)C(F)(F)F [Compound 77, 4H-1,4-Benzoxazine-4-ethanol, 2,3-dihydro-3-[3-(1,1,2,2-tetrafluoroethoxy)phenyl]-8-[3,4,5-trifluoro-phenyl]-α-(trifluoromethyl)-, (3S,αR)—] | 82 | 80 | 220 nM | 
O[C@@H](CN1c2cccc(-c3cc(C(F)(F)F)cc(C(F)(F)F)c3)c2OC[C@@H]1c1cccc(OC(F)(F)C(F)F)c1)C(F)(F)F [Compound 78, 4H-1,4-Benzoxazine-4-ethanol, 2,3-dihydro-3-[3-(1,1,2,2-tetrafluoroethoxy)phenyl]-8-[3,5-bis(trifluoromethyl)phenyl]-α-(trifluoromethyl)-, (3S,αS)—] | 62 | 55 | 580 nM | 
O[C@H](CN1c2cccc(-c3cc(C(F)(F)F)cc(C(F)(F)F)c3)c2OC[C@@H]1c1cccc(OC(F)(F)C(F)F)c1)C(F)(F)F [Compound 79, 4H-1,4-Benzoxazine-4-ethanol, 2,3-dihydro-3-[3-(1,1,2,2-tetrafluoroethoxy)phenyl]-8-[3,5-bis(trifluoromethyl)phenyl]-α-(trifluoromethyl)-, (3S,αR)—] | 40 | 43 | 5000 nM | 
O[C@@H](CN1c2cccc(-c3cc(F)c(F)c(F)c3)c2OC[C@@H]1c1cccc(OC(F)(F)F)c1)C(F)(F)F [Compound 82, 4H-1,4-Benzoxazine-4-ethanol, 2,3-dihydro-3-[3-(trifluoromethoxy)phenyl]-8-[3,4,5-(trifluoro)phenyl]-α-(trifluoromethyl)-, (3S,αS)—] | 96 | 91 | 94 nM | 
CC(C)C(O)CN1c2cccc(-c3cccc(OC(F)(F)F)c3)c2OCC1c1cccc(OC(F)(F)C(F)F)c1 (stereo not shown) [Compound 84, 3-Methyl-1-[3-[3-(1,1,2,2-tetrafluoro-ethoxy)-phenyl]-8-(3-trifluoromethoxy-phenyl)-2,3-dihydro-benzo[1,4]oxazin-4-yl]-butan-2-ol] | 87 | 84 | 100 nM and 158 nM | 
Cc1ccsc1C1COc2c(-c3cccc(OC(F)(F)F)c3)cccc2N1CC(O)C(F)(F)F (stereo not shown) [Compound 86, 1,1,1-Trifluoro-3-[3-(3-methyl-thiophen-2-yl)-8-(3-trifluoromethoxy-phenyl)-2,3-dihydro-benzo[1,4]oxazin-4-yl]-propan-2-ol] | 2 |  |  | 
CCc1ccsc1C1COc2c(-c3cccc(OC(F)(F)F)c3)cccc2N1CC(O)C(F)(F)F (stereo not shown) [Compound 88, 3-[3-(3-Ethyl-thiophen-2-yl)-8-(3-trifluoromethoxy-phenyl)-2,3-dihydro-benzo[1,4]oxazin-4-yl]-1,1,1-trifluoro-propan-2-ol] | 12 |  |  | 
OC(CN1c2cccc(-c3cccc(OC(F)(F)F)c3)c2OCC1c1ccco1)C(F)(F)F (stereo not shown) [Compound 89, 1,1,1-Trifluoro-3-[3-furan-2-yl-8-(3-trifluoromethoxy-phenyl)-2,3-dihydro-benzo[1,4]oxazin-4-yl]-propan-2-ol] |  | 17 |  | 
OC(CN1c2cccc(-c3cccc(OC(F)(F)F)c3)c2OCC1c1ccco1)C(F)(F)F (stereo not shown) [Compound 90, 1,1,1-Trifluoro-3-[3-furan-2-yl-8-(3-trifluoromethoxy-phenyl)-2,3-dihydro-benzo[1,4]oxazin-4-yl]-propan-2-ol] |  |  |  | 17
OC(CN1c2cccc(-c3cccc(OC(F)(F)F)c3)c2OCC1c1ccccc1OC(F)(F)C(F)F)C(F)(F)F (stereo not shown) [Compound 92, 1,1,1-Trifluoro-3-[3-[2-(1,1,2,2-tetrafluoro-ethoxy)-phenyl]-8-(3-trifluoromethoxy-phenyl)-2,3-dihydro-benzo[1,4]oxazin-4-yl]-propan-2-ol] | 1 |  |  | 
OC(CN1c2cccc(-c3cccc(OC(F)(F)F)c3)c2OCC1c1ccccc1)C(F)(F)F (stereo not shown) [Compound 95, 1,1,1-Trifluoro-3-[3-phenyl-8-(3-trifluoromethoxy-phenyl)-2,3-dihydro-benzo[1,4]oxazin-4-yl]-propan-2-ol] | 43 |  |  | 
OC(CN1c2cccc(-c3cccc(OC(F)(F)F)c3)c2OCC1c1ccccc1)C(F)(F)F (stereo not shown) [Compound 96, 1,1,1-Trifluoro-3-[3-phenyl-8-(3-trifluoromethoxy-phenyl)-2,3-dihydro-benzo[1,4]oxazin-4-yl]-propan-2-ol] | 1 |  |  | 

Now from value to molecule:

% Inhibition @ 1 μM (1 µM) [%] | inhibition at 1 µM [%] | IC50 | % Inhibition @ 1 μM [%] | Compound
50 |  |  |  | OC(CF)CN1c2cccc(-c3cccc(OC(F)(F)F)c3)c2OCC1c1cccc(OC(F)(F)C(F)F)c1 (stereo not shown) [Compound 69, 1-Fluoro-3-[3-[3-(1,1,2,2-tetrafluoro-ethoxy)-phenyl]-8-(3-trifluoromethoxy-phenyl)-2,3-dihydro-benzo[1,4]oxazin-4-yl]-propan-2-ol]
2 |  |  |  | OC(CN1c2cccc(-c3cccc(OC(F)(F)F)c3)c2OCC1c1cccc(C(F)(F)F)c1)C(F)(F)F (stereo not shown) [Compound 71, 1,1,1-Trifluoro-3-[8-(3-trifluoromethoxy-phenyl)-3-(3-trifluoromethyl-phenyl)-2,3-dihydro-benzo[1,4]oxazin-4-yl]-propan-2-ol]
 | 100 | 50 nM |  | O[C@@H](CN1c2cccc(-c3cc(F)cc(F)c3)c2OC[C@@H]1c1cccc(OC(F)(F)C(F)F)c1)C(F)(F)F [Compound 72, 4H-1,4-Benzoxazine-4-ethanol, 8-(3,5-difluorophenyl)-2,3-dihydro-3-[3-(1,1,2,2-tetrafluoroethoxy)phenyl]-α-(trifluoromethyl)-, (3S,αS)—]
 | 100 | 193 nM |  | O[C@@H](CN1c2cccc(-c3cc(F)cc(F)c3)c2OC[C@@H]1c1cccc(OC(F)(F)F)c1)C(F)(F)F [Compound 80, 4H-1,4-Benzoxazine-4-ethanol, 2,3-dihydro-3-[3-(trifluoromethoxy)phenyl]-8-[3,5-(difluoro)phenyl]-α-(trifluoromethyl)-, (3S,αS)—]
 | 29 |  |  | O[C@H](CN1c2cccc(-c3cc(F)c(F)c(F)c3)c2OC[C@@H]1c1cccc(OC(F)(F)F)c1)C(F)(F)F [Compound 83, 4H-1,4-Benzoxazine-4-ethanol, 2,3-dihydro-3-[3-(trifluoromethoxy)phenyl]-8-[3,4,5-(trifluoro)phenyl]-α-(trifluoromethyl)-, (3S,αR)—]
20 |  |  |  | Cc1ccsc1C1COc2c(-c3cccc(OC(F)(F)F)c3)cccc2N1CC(O)C(F)(F)F (stereo not shown) [Compound 85, 1,1,1-Trifluoro-3-[3-(3-methyl-thiophen-2-yl)-8-(3-trifluoromethoxy-phenyl)-2,3-dihydro-benzo[1,4]oxazin-4-yl]-propan-2-ol]
 | 8 |  |  | CCc1ccsc1C1COc2c(-c3cccc(OC(F)(F)F)c3)cccc2N1CC(O)C(F)(F)F (stereo not shown) [Compound 87, 3-[3-(3-Ethyl-thiophen-2-yl)-8-(3-trifluoromethoxy-phenyl)-2,3-dihydro-benzo[1,4]oxazin-4-yl]-1,1,1-trifluoro-propan-2-ol]
6 |  |  |  | OC(CN1c2cccc(-c3cccc(OC(F)(F)F)c3)c2OCC1c1ccccc1OC(F)(F)C(F)F)C(F)(F)F (stereo not shown) [Compound 91, 1,1,1-Trifluoro-3-[3-[2-(1,1,2,2-tetrafluoro-ethoxy)-phenyl]-8-(3-trifluoromethoxy-phenyl)-2,3-dihydro-benzo[1,4]oxazin-4-yl]-propan-2-ol]
33 |  |  |  | OC(CN1c2cccc(-c3cccc(OC(F)(F)F)c3)c2OCC1c1ccc(OC(F)(F)C(F)F)cc1)C(F)(F)F (stereo not shown) [Compound 93, 1,1,1-Trifluoro-3-[3-[4-(1,1,2,2-tetrafluoro-ethoxy)-phenyl]-8-(3-trifluoromethoxy-phenyl)-2,3-dihydro-benzo[1,4]oxazin-4-yl]propan-2-ol]
11 |  |  |  | OC(CN1c2cccc(-c3cccc(OC(F)(F)F)c3)c2OCC1c1ccc(OC(F)(F)C(F)F)cc1)C(F)(F)F (stereo not shown) [Compound 94, 1,1,1-Trifluoro-3-[3-[4-(1,1,2,2-tetrafluoro-ethoxy)-phenyl]-8-(3-trifluoromethoxy-phenyl)-2,3-dihydro-benzo[1,4]oxazin-4-yl]propan-2-ol]
